Test results from patent US7750038B2, “Sulfonylated heterocycles useful for modulation of the progesterone receptor” (Wyeth LLC, priority 2007, dated 2010).

system: alkaline phosphatase activity in T47D cells; assay: Effects of progestins and antiprogestins on alkaline phosphatase activity in T47D cells; type: cell-based; details: Homo sapiens, agonist mode, typical value of reference compound
Protocol: Effects of Progestins and Antiprogestins on Alkaline Phosphatase Activity in T47D Cells
PURPOSE: To identify progestins or antiprogestins by determining a compound's effect on alkaline phosphatase activity in T47D cells.
Culture medium: DMEM:F12 (1:1) (GIBCO, BRL) supplemented with 5% (v/v) charcoal stripped fetal bovine serum (not heat-inactivated), 100 U/mL penicillin, 100 μg/mL streptomycin, and 2 mM the GlutaMax™ reagent (GIBCO, BRL).
Alkaline phosphatase assay buffer: • I. 0.1M Tris-HCl, pH 9.8, containing 0.2% the Triton® X-100 reagent • II. 0.1M Tris-HCl, pH 9.8, containing 4 mM p-nitrophenyl phosphate (Sigma).
Frozen T47D cells were thawed in a 37° C. water bath and diluted to 280,000 cells/mL in culture medium. To each well in a 96-well plate (Falcon, Becton Dickinson Labware), 180 μL of diluted cell suspension was added. Twenty μL of reference or test compounds diluted in the culture medium was then added to each well. When testing for progestin antagonist activity, reference antiprogestins or test compounds were added in the presence of 1 nM progesterone. The cells were incubated at 37° C. in a 5% CO2/humidified atmosphere for 24 hours. For high throughput screening, one concentration of each compound was tested at 0.3 μg/mL. Based on an average molecular weight of 300 g/mol for the compounds in the library, the concentration was approximately 1 μM. Subsequently, active compounds were tested in dose response assays to determine EC50 and IC50.
At the end of treatment, the medium was removed from the plate. Fifty μL of assay buffer I was added to each well. The plates were shaken in a titer plate shaker for 15 min. Then, 150 μL of assay buffer II was added to each well. Optical density measurements were taken at 5 min intervals for 30 min at a test wavelength of 405 nm.
For reference and test compounds, a dose response curve was generated for dose (X-axis) vs. the rate of enzyme reaction (slope) (Y-axis). Square root-transformed data were used for analysis of variance and nonlinear dose response curve fitting for both agonist and antagonist modes. Huber weighting was used to down-weight the effects of outliers. EC50 or IC50 values were calculated from the retransformed values. JMP software (SAS Institute, Inc.) is used for both one-way analysis of variance and non-4 linear dose response analysis in both single dose and dose response studies.
Progesterone and trimegestone are reference progestins known in the art and typically show an EC50 of about 0.1 nM to about 2.0 nM.

| EC50 | SMILES |
| --- | --- |
| 0.1 to 2 nM | CC(=O)[C@H]1CC[C@H]2[C@@H]3CCC4=CC(=O)CC[C@]4(C)[C@H]3CC[C@]12C [Progesterone] |

same assay, conditions: Homo sapiens, antagonist mode, typical value of reference compound, read-out: IC50 of reference antiprogestin, alkaline phosphatase T47D

| IC50 | SMILES |
| --- | --- |
| 0.1 to 2 nM | CC#C[C@]1(O)CC[C@H]2[C@@H]3CCC4=CC(=O)CCC4=C3[C@@H](c3ccc(N(C)C)cc3)C[C@@]21C [RU486, reference compound] |

same assay, conditions: Homo sapiens, progestin antagonist mode in the presence of 1 nM progesterone, 24 hours, read-out: Alkaline Phosphatase T47D IC50

| SMILES | IC50 |
| --- | --- |
| CC(C)S(=O)(=O)N1CCc2cc(-c3ccc(C#N)n3C)ccc21 [Example 5, 5-[1-(isopropylsulfonyl)-2,3-dihydro-1H-indol-5-yl]-1-methyl-1H-pyrrole-2-carbonitrile] | 4.9 nM |
| Cn1c(C#N)ccc1-c1ccc2c(c1)CCN2S(C)(=O)=O [Example 1, 1-methyl-5-[1-(methylsulfonyl)-2,3-dihydro-1H-indole-5-yl]-1H-pyrrole-2-carbonitrile] | 4.3 nM |
| CCS(=O)(=O)N1CCc2cc(-c3ccc(C#N)n3C)cc(F)c21 [Example 8, 5-[1-(ethylsulfonyl)-7-fluoro-2,3-dihydro-1H-indol-5-yl]-1-methyl-1H-pyrrole-2-carbonitrile] | 12.2 nM |
| CCCS(=O)(=O)N1CCc2cc(-c3ccc(C#N)n3C)ccc21 [Example 6, 1-methyl-5-[1-(propylsulfonyl)-2,3-dihydro-1H-indol-5-yl]-1H-pyrrole-2-carbonitrile] | 2.3 nM |

Now from value to compound:

| IC50 | SMILES |
| --- | --- |
| 4.4 nM | Cn1c(C#N)ccc1-c1ccc2c(c1)CCCN2S(C)(=O)=O [Example 9, 1-methyl-5-[1-(methylsulfonyl)-1,2,3,4-tetrahydroquinolin-6-yl]-1H-pyrrole-2-carbonitrile] |
| 6.8 nM | CCS(=O)(=O)N1CC(C)(C)c2cc(-c3ccc(C#N)n3C)ccc21 [Example 3, 5-[1-(ethylsulfonyl)-3,3-dimethyl-2,3-dihydro-1H-indol-5-yl]-1-methyl-1H-pyrrole-2-carbonitrile] |
| 9.2 nM | Cn1c(C#N)ccc1-c1ccc2c(c1)C(C)(C)CN2S(C)(=O)=O [Example 2, 5-[3,3-dimethyl-1-(methylsulfonyl)-2,3-dihydro-1H-indol-5-yl]-1-methyl-1H-pyrrole-2-carbonitrile] |
| 3.15 nM | CCS(=O)(=O)N1CCCc2cc(-c3ccc(C#N)n3C)ccc21 [Example 10, 5-[1-(ethylsulfonyl)-1,2,3,4-tetrahydroquinolin-6-yl]-1-methyl-1H-pyrrole-2-carbonitrile] |
| 2.4 nM | CCS(=O)(=O)N1CCc2cc(-c3ccc(C#N)n3C)ccc21 [Example 4, 5-[1-(ethylsulfonyl)-2,3-dihydro-1H-indol-5-yl]-1-methyl-1H-pyrrole-2-carbonitrile] |
| 11.1 nM | Cn1c(C#N)ccc1-c1cc(F)c2c(c1)CCN2S(C)(=O)=O [Example 7, 5-[7-fluoro-1-(methylsulfonyl)-2,3-dihydro-1H-indol-5-yl]-1-methyl-1H-pyrrole-2-carbonitrile] |
| 3.6 nM | CCCS(=O)(=O)N1CCCc2cc(-c3ccc(C#N)n3C)ccc21 [Example 11, 1-methyl-5-[1-(propylsulfonyl)-1,2,3,4-tetrahydroquinolin-6-yl]-1H-pyrrole-2-carbonitrile] |
